Assay [1] has as its system Rattus norvegicus. Description: Compound was tested for analgesic activity by tail-flick assay in rat after subcutaneous administration. The following applies: sc. The class given is functional.
The subject of assay [2] is Mus musculus. The assay is described as follows: Compound was tested for analgesic activity by writhing assay in mouse after subcutaneous administration. The class given is functional. The following applies: sc. (In general: In writhing tests, fewer writhes than in controls are read as antinociception.)
Assay [3] relates to Rattus norvegicus. The assay is described as follows: Compound was tested for analgesic activity by tail-flick assay in rat after subcutaneous administration; Inactive at 30 uM/Kg. The class given is functional, organism-based.
The subject of assay [4] is Rattus norvegicus. The assay is described as follows: Compound was tested for analgesic activity by tail-flick assay in rat after subcutaneous administration; Inactive at 25 uM/Kg. The class given is functional, organism-based. On the technique in general: Hot-plate and tail-flick tests time the reaction to a heat stimulus.
The subject of assay [5] is Rattus norvegicus. Description: Compound was tested for analgesic activity by tail-flick assay in rat after subcutaneous administration; Inactive at 65 uM/Kg. The class given is functional, organism-based.
Assay [6] concerns Rattus norvegicus. Description: Compound was tested for narcotic antagonist activity determined using an intraperitoneal ED80 of morphine in rat tail-flick assay; Inactive at 25 uM/Kg. In kind it is functional, organism-based.
The test system of assay [7] is Mus musculus. Description: Compound was tested for analgesic activity by writhing assay in mouse after subcutaneous administration; Inactive at 10 uM/Kg. In kind it is functional, organism-based.
The test system of assay [8] is Rattus norvegicus. Description: Compound was tested for analgesic activity by tail-flick assay in rat after subcutaneous administration; Inactive at 3 uM/Kg. The class given is functional, organism-based.
In assay [9] the test system is Mus musculus. The assay is described as follows: Compound was tested for analgesic activity by writhing assay in mouse after subcutaneous administration; Inactive at 32 uM/Kg. The class given is functional, organism-based.
Assay [10] relates to Rattus norvegicus. The assay is described as follows: Compound was tested for analgesic activity by tail-flick assay in rat after subcutaneous administration; Inactive at 32 uM/Kg. In kind it is functional, organism-based.
For assay [11], the system named is Rattus norvegicus. The assay is described as follows: Compound was tested for narcotic antagonist activity determined using an intraperitoneal ED80 of morphine in rat tail-flick assay; Inactive at 55 uM/Kg. The class given is functional, organism-based.
The test system of assay [12] is Rattus norvegicus. Description: Compound was tested for narcotic antagonist activity determined using an intraperitoneal ED80 of morphine in rat tail-flick assay. In kind it is functional. The following applies: ip.
Assay [13] concerns Rattus norvegicus. Description: Compound was tested for narcotic antagonist activity determined using an intraperitoneal ED80 of morphine in rat tail-flick assay; Inactive at 50 uM/Kg. In kind it is functional, organism-based.

18 compounds from ChEMBL document CHEMBL1121640, “Analgesic narcotic antagonists. 6. 7 beta, 8 beta-Methano- and 7 beta, 8 beta-epoxydihydrocodeinone” (1981) can be followed below.

Activity calls are given as the source filed them. The rule behind the calls is not given here.

For orientation: ED50 means the midpoint of the dose-response relation.

As for `COc1ccc2c3c1O[C@H]1[C@@H](O)CC[C@H]4[C@@H](C2)N(C)CC[C@@]341` [DIHYDROCODEINE], the values for the ED50 with Rattus norvegicus [1] and with Mus musculus [2] were > 22 µmol/kg and 3.8 µmol/kg, respectively.
With `COc1ccc2c3c1OC1C34CCN(C)C(C2)C4[C@H]2O[C@H]2[C@@]1(O)OC` (stereo partly specified), the ED50 result in the assay with Rattus norvegicus [3] was “inactive”. In the assay with Mus musculus [2], this compound came in with a median effective dose (ED50) of 18 µmol/kg.
On to `COc1ccc2c3c1O[C@H]1C(=O)CC(SCCO)C4C(C2)N(C)CCC341` (stereo partly specified), for which the ED50 entry in the assay on Rattus norvegicus [4] was “inactive”. Moreover, the ED50 in the assay on Mus musculus [2] was > 25 µmol/kg.
`COc1ccc2c3c1OC1[C@@H](O)[C@@H]4C[C@@H]4C4C(C2)N(C)CCC314` (stereo partly specified) showed an ED50 in the assay with Mus musculus [2] of 1.79 µmol/kg. The ED50 entry in the assay with Rattus norvegicus [5] was “inactive”.
Turning to `COc1ccc2c3c1O[C@H]1C(=O)C=CC4[C@@H](C2)N(CC2CCC2)CC[C@@]341` (stereo partly specified), in the assay with Rattus norvegicus [6], the ED50 entry is “inactive”. Besides, it took a dose of 20.3 µmol/kg to reach the 50% effect level in the assay with Mus musculus [2] (ED50).
With `COc1ccc2c3c1OC1C(=O)C=CC4C(C2)N(C)CCC314` (stereo unspecified), the ED50 entry in the assay on Mus musculus [7] and in the assay on Rattus norvegicus [8] was “inactive” in each case.
For the compound `COc1ccc2c3c1O[C@H]1[C@@H](O)C=C[C@H]4[C@@H](C2)N(C)CC[C@@]341` [CODEINE], the median effective dose (ED50) with Rattus norvegicus [1] stood at 75.1 µmol/kg; with Mus musculus [2], 10.3 µmol/kg.
As to `COc1ccc2c3c1OC1C(=O)[C@@H]4C[C@@H]4C4C(C2)N(C)CCC314` (stereo partly specified), the values for the ED50 in the assay with Rattus norvegicus [1] and in the assay with Mus musculus [2] were 4.7 µmol/kg and 0.43 µmol/kg, respectively.
`COc1ccc2c3c1OC1[C@@H](O)[C@@H]4O[C@@H]4C4C(C2)N(C)CCC314` (stereo partly specified): the ED50 result with Mus musculus [9] and in the assay with Rattus norvegicus [10] was “inactive” throughout.
For `COc1ccc2c3c1OC1[C@@H](O)[C@@H]4C[C@@H]4C4C(C2)N(CC2CCC2)CCC314` (stereo partly specified), in the assay on Mus musculus [2], the ED50 was > 55 µmol/kg. For the same compound, in the assay on Rattus norvegicus [11], the ED50 result was “inactive”.
For `Oc1ccc2c(c1)[C@@]13CCCC[C@@]1(O)[C@@H](C2)N(CC1CCC1)CC3` [BUTORPHANOL], the values for the ED50 in the assay on Rattus norvegicus [12] and in the assay on Mus musculus [2] were 2 µmol/kg and 0.34 µmol/kg, respectively.
In the case of `COc1ccc2c3c1OC1C(=O)[C@@H]4C[C@@H]4C4C(C2)N(CC2CCC2)CCC314` (stereo partly specified), the ED50 entry in the assay on Rattus norvegicus [13] is “inactive”. This compound returned a median effective dose (ED50) with Mus musculus [2] of 12.4 µmol/kg.
As for `COc1ccc2c3c1O[C@H]1C(=O)CC[C@H]4[C@@H](C2)N(C)CC[C@]314` [HYDROCODONE], the 50% effective dose (ED50) was 5.2 µmol/kg in the assay on Rattus norvegicus [1] and 2.4 µmol/kg in the assay on Mus musculus [2].
For the compound `COc1ccc2c3c1OC1C(=O)CC(SCCO)C4C(C2)N(CC2CC2)CCC314` (stereo unspecified), the values for the median effective dose (ED50) in the assay with Rattus norvegicus [12] and with Mus musculus [2] were > 30 µmol/kg and 3.4 µmol/kg, respectively.
Consider `COc1ccc2c3c1OC1C(=O)[C@@H]4O[C@@H]4C4C(C2)N(C)CCC314` (stereo partly specified), for which the ED50 result in the assay on Mus musculus [9] was “inactive”. Moreover, in the assay with Rattus norvegicus [1], the ED50 is > 30 µmol/kg.
As for `CC(C)=CCN1CC[C@]2(C)c3cc(O)ccc3C[C@H]1[C@H]2C` [(+)-PENTAZOCINE], the ED50 came to 36.4 µmol/kg in the assay with Rattus norvegicus [12] and 13 µmol/kg in the assay with Mus musculus [2].
For the compound `COc1ccc2c3c1O[C@H]1C(=O)CC(CCl)C4C(C2)N(C)CCC341` (stereo partly specified), the ED50 result in the assay on Rattus norvegicus [4] is “inactive”. Besides, the ED50 with Mus musculus [2] was determined as 12.2 µmol/kg.
On to `COc1ccc2c3c1OC1C(=O)[C@@H]4C[C@@H]4C4C(C2)N(CC2CC2)CCC314` (stereo partly specified), for which the median effective dose (ED50) turned out to be 8.7 µmol/kg with Rattus norvegicus [12] and 9 µmol/kg in the assay with Mus musculus [2].
